Measured values from article PMC5994915 (Bioorganic & medicinal chemistry, 2017).

Legend:
[1] = test system: class I HDACs in HEL cells; conditions: Boc-Lys (acetyl)-AMC substrate, n ≥ 2
[2] = test system: class IIa HDACs in HEL cells; conditions: Boc-Lys (triflouroacetyl)-AMC substrate, n ≥ 2

## Nc1ccccc1NC(=O)c1ccc(NC(=O)CN2C(=O)C3(OCCCO3)c3cc(Br)ccc32)cc1 [9a, N-(2-aminophenyl)-4-(2-(5-bromo-2-oxospiro[indoline-3,2′-[1,3]dioxan]-1-yl)acetamido)ben-zamide]
[1]
  HDAC class I cellular IC50: not active
[2]
  HDAC class IIa cellular IC50: not active

## Nc1ccc(-c2cccs2)cc1NC(=O)c1ccc(CNC(=O)CN2C(=O)C3(OCCCO3)c3cc(Cl)ccc32)cc1 [23a, N-(2-Amino-5-(thiophen-2-yl)phenyl)-4-((2-(5-chloro-2-oxospiro[indoline-3,2′-[1,3]dioxan]-1-yl)acetamido)methyl)benza-mide]
[1]
  HDAC class I cellular IC50: not active
[2]
  HDAC class IIa cellular IC50: not active
